Experimental findings from PubChem BioAssay (NCI) are described below.

Several values for one entry are separate records, joined by “and”; a condition that tells them apart may be missing. Identical values can stand only once.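 Interpolation was linear, between the two tested concentrations surrounding the appropriate level; five concentrations were tested over 48 hours in 96-well plates. Abbreviation: GI50, concentration required for 50% inhibition of growth. TGI denotes the concentration required for complete inhibition of growth.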 Where only a bound is given, the exact number is not on record here.

Some test systems named below: KM12 colon; M19-MEL melanoma; KM20L2 colon; OVCAR-4 ovarian; K-562 leukemia; LXFL 529 NSCLC; HOP-92 NSCLC; SN12C renal; DLD-1 colon; XF 498 CNS; MCF7 breast.
Holding throughout (test): inhibition of tumour cell growth, NCI panel, 48 h

Regarding `CCc1cccc(C(C)C)c1C1C(=O)C(=O)N(c2nc3ccccc3s2)C(=O)C1=O`, the TGI in the assay with KM12 colon, in the assay on M19-MEL melanoma, with KM20L2 colon, with OVCAR-4 ovarian, in the assay with K-562 leukemia and with LXFL 529 NSCLC was over 100 µM throughout. Also, the TGI in the assay on HOP-92 NSCLC, in the assay on SN12C renal and in the assay with DLD-1 colon was over 100 µM throughout.

Regarding `COc1ccc(C2Oc3cc(OC)c(O)cc3[C@@H]2C)cc1` (some centres not stated), the TGI with KM12 colon is over 100 µM; in the assay with KM20L2 colon it was over 100 µM; with OVCAR-4 ovarian, over 100 µM; in the assay on XF 498 CNS, 35.6 µM; with K-562 leukemia, over 100 µM; with LXFL 529 NSCLC, 32.1 µM. Also, the TGI in the assay with HOP-92 NSCLC is 72.1 µM; in the assay with DLD-1 colon, 44.4 µM.

As to `Nc1n[nH]c(=O)c2c1c(Br)cn2C1OC(CO)C(O)C1O` (configuration not stated), the TGI in the assay with KM12 colon was over 100 µM; in the assay with M19-MEL melanoma, 40.2 µM; with KM20L2 colon, over 100 µM; in the assay on OVCAR-4 ovarian, 26.3 µM; in the assay on K-562 leukemia, over 100 µM; in the assay on LXFL 529 NSCLC, over 100 µM. The TGI in the assay on HOP-92 NSCLC is 7.59 µM; in the assay with SN12C renal, 43.5 µM; in the assay with DLD-1 colon, over 25.3 µM.

As to `CC/C(=C(\c1ccccc1)c1ccc(OCC[N+](C)(C)C)cc1)c1ccccc1`, the TGI was found to be 29.8 µM in the assay on KM12 colon; 26.2 µM with M19-MEL melanoma; 31.1 µM in the assay with KM20L2 colon; 30.9 µM in the assay with OVCAR-4 ovarian; 19.9 µM with K-562 leukemia; 24.6 µM in the assay with LXFL 529 NSCLC. Moreover, the TGI with SN12C renal was 25.7 µM; in the assay on DLD-1 colon, 37.9 µM.

Take `COC(=O)c1c(OC(=O)c2ccccc2)noc1CC(=O)OC1C=CCCC1` (configuration not stated): the TGI with KM12 colon, in the assay on KM20L2 colon, with OVCAR-4 ovarian, in the assay with K-562 leukemia, in the assay on LXFL 529 NSCLC and in the assay on SN12C renal was over 100 µM each time. The TGI in the assay on DLD-1 colon is over 100 µM.

On to `CC(CCC/C=C/CCCN(C)C(=N)N)CC(C)C1OC(=O)C(C)C(O)/C=C/C(C)C(O)C(C)C(O)C(C)C(O)CCCC(O)CC2(O)OC(CC(OC(=O)CC(=O)O)CC(O)CC(O)C(C)C(O)/C=C/C=C/C1C)CC(O)C2O` (configuration not stated), for which the GI50 in the assay on KM12 colon is 1.88 µM and 2.62 µg/mL; in the assay with MCF7 breast, 1.79 µM and 3.53 µg/mL; in the assay with OVCAR-4 ovarian, 2.65 µM and 7.59 µg/mL; in the assay on K-562 leukemia, 3.13 µM and 10.4 µg/mL; in the assay with HOP-92 NSCLC it was 1.92 µM and 9.74 µg/mL; in the assay on SN12C renal, 2.22 µM and 2.78 µg/mL. The TGI in the assay on KM12 colon is 3.37 µM and 9.79 µg/mL; in the assay on MCF7 breast it was 3.67 µM and 14 µg/mL; in the assay on OVCAR-4 ovarian, 6.66 µM and 18.4 µg/mL; in the assay with K-562 leukemia, 7.16 µM and 75 µg/mL; in the assay on HOP-92 NSCLC it was 6.57 µM and 20.1 µg/mL; in the assay with SN12C renal, 4.97 µM and 12 µg/mL.

Take `Cn1c(N)c(N=Nc2ccc(S(N)(=O)=O)cc2)c(=O)n(C)c1=O`: the TGI in the assay on KM12 colon, with MCF7 breast, in the assay on OVCAR-4 ovarian, in the assay on K-562 leukemia, with HOP-92 NSCLC and with SN12C renal was over 100 µM throughout.

On to `CCN(CC)CCC(CNc1c2ccc(Cl)cc2nc2ccc(OC)cc12)c1ccccc1` (configuration not stated), for which the GI50 was 0.996 µM with KM12 colon; 0.505 µM with MCF7 breast; 1.64 µM with OVCAR-4 ovarian; 0.337 µM in the assay on K-562 leukemia; 1.79 µM with HOP-92 NSCLC; 1.15 µM with SN12C renal. Further, the TGI with KM12 colon was determined as 4.47 µM; with MCF7 breast, 1.88 µM; with OVCAR-4 ovarian, 4.26 µM; with K-562 leukemia it was 1.28 µM; in the assay with HOP-92 NSCLC, 3.86 µM; in the assay with SN12C renal, 4.98 µM.

Take `CCCCCCCCCCCCOC1C(C(COC2OC(C(O)CO)C3OC(C)(C)OC23)OC(=O)Nc2ccc([N+](=O)[O-])cc2)OC2OC(C)(C)OC21` (configuration not stated): the GI50 was 2 µM in the assay on KM12 colon; 2.69 µM in the assay on MCF7 breast; 7.09 µM in the assay with OVCAR-4 ovarian; 3.87 µM in the assay on K-562 leukemia; 3.82 µM in the assay on HOP-92 NSCLC; 1.78 µM in the assay on SN12C renal. The TGI amounted to 4.1 µM in the assay with KM12 colon; 8.6 µM in the assay with MCF7 breast; 23.5 µM in the assay on OVCAR-4 ovarian; 16.8 µM with K-562 leukemia; 14.7 µM in the assay on HOP-92 NSCLC; 3.52 µM with SN12C renal.

Consider `C[N+](C)(C)CC(=O)N/N=C(\C(=O)Nc1ccc(Cl)cc1)C1C(=O)N(c2ccccc2)N=C1N` (configuration not stated), for which the TGI in the assay with KM12 colon, in the assay on M19-MEL melanoma, in the assay with KM20L2 colon, in the assay on OVCAR-4 ovarian, with K-562 leukemia and with LXFL 529 NSCLC was over 100 µM in each case. In addition, the TGI in the assay with HOP-92 NSCLC, in the assay with SN12C renal and with DLD-1 colon was over 100 µM each time.

In the case of `NC(=O)NOCC1NC(=O)NC1=O` (configuration not stated), the TGI in the assay with KM12 colon, with MCF7 breast, in the assay on OVCAR-4 ovarian, with K-562 leukemia, with HOP-92 NSCLC and in the assay on SN12C renal was over 100 µM throughout.

As to `Cn1c([N+](=O)[O-])cnc1/C=C1\Oc2ccc(Cl)cc2C1=O`, the GI50 is 0.36 µM in the assay with KM12 colon; 0.485 µM in the assay with MCF7 breast; 1.7 µM with OVCAR-4 ovarian; 0.765 µM with K-562 leukemia; 1.03 µM in the assay with HOP-92 NSCLC; 0.738 µM in the assay with SN12C renal. Besides, the TGI is 1.47 µM in the assay on KM12 colon; 4.42 µM in the assay on MCF7 breast; 5.71 µM with OVCAR-4 ovarian; over 26.9 µM with K-562 leukemia; 4.12 µM in the assay on HOP-92 NSCLC; 3.46 µM in the assay with SN12C renal.

Regarding `C#Cc1cccc(NC(=O)Nc2cccc(NC(=O)CCl)c2)c1`, the GI50 is 58.6 µM in the assay on KM12 colon; 21.7 µM in the assay with MCF7 breast; 12 µM with OVCAR-4 ovarian; 22.8 µM in the assay with K-562 leukemia; over 82.5 µM in the assay with HOP-92 NSCLC; 17.3 µM with SN12C renal. For the same molecule, the TGI was over 82.5 µM in the assay with KM12 colon; over 82.5 µM with MCF7 breast; 29.5 µM in the assay on OVCAR-4 ovarian; over 82.5 µM in the assay on K-562 leukemia; over 82.5 µM with HOP-92 NSCLC; 49.9 µM with SN12C renal.
